Measurements published in ChEMBL document CHEMBL1201862, “PubChem BioAssay data set” (2004).
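Values below derive from 48-hour exposures of cells grown in 96-well plates, with endpoints linearly interpolated between the two concentrations bracketing the appropriate inhibition level. GI50 = concentration required for 50% inhibition of growth.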 The source made the active and inactive calls. Rule as the data show it: active = GI50 up to about 1.1 µM and inactive = higher.

Tests used:
Assay in all cases: NCI tumour cell line growth inhibition, 48 h
786-0 = test system: 786-0
A498 = test system: A498
A549 = test system: A549
ACHN = test system: ACHN
CAKI-1 = test system: CAKI-1
CCRF-CEM = test system: CCRF-CEM
COLO 205 = test system: COLO 205
DU-145 = test system: DU-145
EKVX = test system: EKVX
HCC 2998 = test system: HCC 2998
HCT-116 = test system: HCT-116
HCT-15 = test system: HCT-15
HL-60 = test system: HL-60
HOP-62 = test system: HOP-62
HOP-92 = test system: HOP-92
HT-29 = test system: HT-29
IGROV-1 = test system: IGROV-1
K562 = test system: K562
KM12 = test system: KM12
LOX IMVI = test system: LOX IMVI
M14 = test system: M14
MCF7 = test system: MCF7
MDA-MB-231 = test system: MDA-MB-231
MDA-MB-435 = test system: MDA-MB-435
MDA-N = test system: MDA-N
MOLT-4 = test system: MOLT-4
Malme-3M = test system: Malme-3M
NCI-H226 = test system: NCI-H226
NCI-H23 = test system: NCI-H23
NCI-H460 = test system: NCI-H460
NCI-H522 = test system: NCI-H522
NCI/ADR-RES = test system: NCI/ADR-RES
OVCAR-3 = test system: OVCAR-3
OVCAR-4 = test system: OVCAR-4
OVCAR-5 = test system: OVCAR-5
OVCAR-8 = test system: OVCAR-8
PC-3 = test system: PC-3
RXF 393 = test system: RXF 393
SF-268 = test system: SF-268
SF-295 = test system: SF-295
SF-539 = test system: SF-539
SK-MEL-28 = test system: SK-MEL-28
SK-MEL-2 = test system: SK-MEL-2
SK-OV-3 = test system: SK-OV-3
SN12C = test system: SN12C
SNB-19 = test system: SNB-19
SNB-75 = test system: SNB-75
SR = test system: SR
SW-620 = test system: SW-620
T47D = test system: T47D
TK-10 = test system: TK-10
U-251 = test system: U-251
UACC-257 = test system: UACC-257
UACC-62 = test system: UACC-62
UO-31 = test system: UO-31
RPMI-8226 = test system: RPMI-8226
SK-MEL-5 = test system: SK-MEL-5

O=c1[nH]c(=O)n(COCCOCc2ccccc2)cc1Nc1ccccc1 was tested, and the GI50 (786-0) was 60.1 µM (inactive), the GI50 (A498) was > 100 µM (inactive) and the GI50 (A549) was > 100 µM (inactive). The GI50 (ACHN) was > 100 µM (inactive), the GI50 (CAKI-1) was > 100 µM (inactive) and the GI50 (CCRF-CEM) was > 100 µM (inactive). For the same molecule, the GI50 (COLO 205) was > 100 µM (inactive), the GI50 (DU-145) was > 100 µM (inactive) and the GI50 (EKVX) was > 100 µM (inactive). The GI50 (HCC 2998) was > 100 µM (inactive), the GI50 (HCT-116) was > 100 µM (inactive) and the GI50 (HCT-15) was > 100 µM. The GI50 (HL-60) was 41.9 µM (inactive), the GI50 (HOP-62) was > 100 µM (inactive) and the GI50 (HOP-92) was > 100 µM (inactive). For the same molecule, the GI50 (HT-29) was > 100 µM (inactive), the GI50 (IGROV-1) was > 100 µM (inactive) and the GI50 (K562) was > 100 µM (inactive). For the same molecule, the GI50 (KM12) was > 100 µM (inactive), the GI50 (LOX IMVI) was > 100 µM (inactive) and the GI50 (M14) was > 100 µM (inactive). The GI50 (MCF7) was > 100 µM (inactive), the GI50 (MDA-MB-231) was > 100 µM (inactive) and the GI50 (MDA-MB-435) was > 100 µM (inactive). The GI50 (MDA-N) was > 100 µM (inactive), the GI50 (MOLT-4) was 59.4 µM (inactive) and the GI50 (Malme-3M) was > 100 µM (inactive). For the same molecule, the GI50 (NCI-H226) was > 100 µM (inactive), the GI50 (NCI-H23) was > 100 µM (inactive) and the GI50 (NCI-H460) was > 100 µM (inactive). The GI50 (NCI-H522) was > 100 µM (inactive), the GI50 (NCI/ADR-RES) was > 100 µM (inactive) and the GI50 (OVCAR-3) was > 100 µM (inactive). The GI50 (OVCAR-4) was > 100 µM (inactive), the GI50 (OVCAR-5) was > 100 µM (inactive) and the GI50 (OVCAR-8) was > 100 µM (inactive). For the same molecule, the GI50 (PC-3) was > 100 µM (inactive), the GI50 (RXF 393) was > 100 µM (inactive) and the GI50 (SF-268) was > 100 µM (inactive). For the same molecule, the GI50 (SF-295) was > 100 µM (inactive), the GI50 (SF-539) was > 100 µM (inactive) and the GI50 (SK-MEL-28) was > 100 µM (inactive). For the same molecule, the GI50 (SK-MEL-2) was > 100 µM (inactive), the GI50 (SK-OV-3) was > 100 µM (inactive) and the GI50 (SN12C) was > 100 µM (inactive). For the same molecule, the GI50 (SNB-19) was > 100 µM (inactive), the GI50 (SNB-75) was > 100 µM (inactive) and the GI50 (SR) was > 100 µM (inactive). The GI50 (SW-620) was > 100 µM (inactive), the GI50 (T47D) was 24.2 µM (inactive) and the GI50 (TK-10) was > 100 µM (inactive). For the same molecule, the GI50 (U-251) was > 100 µM (inactive), the GI50 (UACC-257) was > 100 µM (inactive) and the GI50 (UACC-62) was > 100 µM (inactive). For the same molecule, the GI50 (UO-31) was > 100 µM (inactive).
With O=C1Nc2ccccc2/C1=N/NC(=S)N1CCCCCC1 the GI50 (786-0) was 0.332 µM (active), the GI50 (A498) was 1.07 µM (active) and the GI50 (A549) was 0.643 µM (active). For the same molecule, the GI50 (ACHN) was 0.824 µM (active), the GI50 (CAKI-1) was 1.43 µM (inactive) and the GI50 (COLO 205) was 1.03 µM (active). For the same molecule, the GI50 (DU-145) was 2.2 µM (inactive), the GI50 (EKVX) was 0.851 µM (active) and the GI50 (HCC 2998) was 1.52 µM (inactive). For the same molecule, the GI50 (HCT-116) was 0.312 µM (active), the GI50 (HCT-15) was 0.45 µM and the GI50 (HOP-62) was 0.242 µM (active). The GI50 (HOP-92) was 1.82 µM (inactive), the GI50 (HT-29) was 1.3 µM (inactive) and the GI50 (IGROV-1) was 0.187 µM (active). For the same molecule, the GI50 (KM12) was 0.283 µM (active), the GI50 (LOX IMVI) was 0.507 µM (active) and the GI50 (M14) was 0.684 µM (active). For the same molecule, the GI50 (MCF7) was 1.96 µM (inactive), the GI50 (MDA-MB-231) was 0.56 µM (active) and the GI50 (MDA-MB-435) was 1.26 µM (inactive). The GI50 (MDA-N) was 2.8 µM (inactive), the GI50 (MOLT-4) was 0.366 µM (active) and the GI50 (Malme-3M) was 0.272 µM (active). For the same molecule, the GI50 (NCI-H226) was 1.36 µM (inactive), the GI50 (NCI-H23) was 1.21 µM (inactive) and the GI50 (NCI-H460) was 0.09 µM (active). For the same molecule, the GI50 (NCI-H522) was 2.47 µM (inactive), the GI50 (NCI/ADR-RES) was 0.0769 µM (active) and the GI50 (OVCAR-3) was 0.163 µM (active). The GI50 (OVCAR-4) was 1.38 µM (inactive), the GI50 (OVCAR-5) was 2.59 µM (inactive) and the GI50 (OVCAR-8) was 0.895 µM (active). For the same molecule, the GI50 (PC-3) was 0.453 µM (active), the GI50 (RPMI-8226) was 0.824 µM (active) and the GI50 (RXF 393) was 0.644 µM (active). For the same molecule, the GI50 (SF-268) was 0.322 µM (active), the GI50 (SF-295) was 1 µM (active) and the GI50 (SF-539) was 0.168 µM (active). For the same molecule, the GI50 (SK-MEL-28) was 1.87 µM (inactive), the GI50 (SK-MEL-2) was 1.66 µM (inactive) and the GI50 (SK-MEL-5) was 0.0723 µM (active). For the same molecule, the GI50 (SK-OV-3) was 1.65 µM (inactive), the GI50 (SN12C) was 1.42 µM (inactive) and the GI50 (SNB-19) was 1.54 µM (inactive). For the same molecule, the GI50 (SNB-75) was 1.69 µM (inactive), the GI50 (SR) was 0.212 µM (active) and the GI50 (SW-620) was 0.594 µM (active). The GI50 (T47D) was 3.78 µM (inactive), the GI50 (TK-10) was 1.8 µM (inactive) and the GI50 (U-251) was 1.11 µM (active). The GI50 (UACC-257) was 2.54 µM (inactive), the GI50 (UACC-62) was 0.489 µM (active) and the GI50 (UO-31) was 0.35 µM (active).
